The results in this text go back to PMC5218480 (PLoS ONE, 2017).

In this test the test system is MV-4-11 cells. Description: Gene expression microarray analysis (Affymetrix PrimeView) and GSEA. The test is classed as cell-based, human. Further details: RFU PODN (11730768_x_at) / Fold change /veh PODN (11730768_x_at) / RFU LINC00158 (11744669_a_at) / Fold change /veh LINC00158 (11744669_a_at) / RFU DUSP10 (11751237_a_at) / Fold change /veh DUSP10 (11751237_a_at) / RFU ID3 (11757404_x_at) / Fold change /veh ID3 (11757404_x_at) / RFU PLEKHG5 (11737974_s_at) / Fold change /veh PLEKHG5 (11737974_s_at) / RFU LRRC4B (11730491_at) / Fold change /veh LRRC4B (11730491_at) / RFU GIMAP4 (11747438_a_at) / Fold change /veh GIMAP4 (11747438_a_at) / RFU KRT8 (11758183_x_at) / Fold change /veh KRT8 (11758183_x_at) / RFU CNN1 (11734310_a_at) / Fold change /veh CNN1 (11734310_a_at) / RFU VPS37D (11726825_at) / Fold change /veh VPS37D (11726825_at) / RFU C10orf10 (11716522_x_at) / Fold change /veh C10orf10 (11716522_x_at) / RFU KIR2DL2 /// KIR2DL4 /// KIR2DL5A /// KIR2DL5B /// KIR2DS1 /// KIR2DS2 /// KIR2DS3 /// KIR2DS4 /// KIR3DL3 /// KIR3DL3 /// KIR3DS1 (11738374_at) / Fold change /veh KIR2DL2 /// KIR2DL4 /// KIR2DL5A /// KIR2DL5B /// KIR2DS1 /// KIR2DS2 /// KIR2DS3 /// KIR2DS4 /// KIR3DL3 /// KIR3DL3 /// KIR3DS1 (11738374_at) / RFU C1QL1 (11718748_at) / Fold change /veh C1QL1 (11718748_at) / RFU TMPRSS4 (11747572_a_at) / Fold change /veh TMPRSS4 (11747572_a_at) / RFU HAMP (11756126_x_at) / Fold change /veh HAMP (11756126_x_at) / RFU RNFT2 (11725882_a_at) / Fold change /veh RNFT2 (11725882_a_at) / RFU NR4A2 (11747474_a_at) / Fold change /veh NR4A2 (11747474_a_at) / RFU ABCC12 (11746883_a_at) / Fold change /veh ABCC12 (11746883_a_at) / RFU TMEM136 (11760407_x_at) / Fold change /veh TMEM136 (11760407_x_at) / RFU CLDN22 /// WWC2 (11732394_at) / Fold change /veh CLDN22 /// WWC2 (11732394_at) / RFU HLA-DPB1 (11760878_x_at) / Fold change /veh HLA-DPB1 (11760878_x_at) / RFU SPINT1 (11716480_a_at) / Fold change /veh SPINT1 (11716480_a_at) / RFU GAP43 (11754022_s_at) / Fold change /veh GAP43 (11754022_s_at) / RFU A4GNT (11735810_at) / Fold change /veh A4GNT (11735810_at) / RFU PRB3 (11715151_x_at) / Fold change /veh PRB3 (11715151_x_at) / RFU TUBB4B (11761932_at) / Fold change /veh TUBB4B (11761932_at) / RFU CAPN14 (11732068_a_at) / Fold change /veh CAPN14 (11732068_a_at) / RFU TMCC2 (11721928_a_at) / Fold change /veh TMCC2 (11721928_a_at) / RFU IRGQ (11745062_a_at) / Fold change /veh IRGQ (11745062_a_at) / RFU FAM174B (11720279_a_at) / Fold change /veh FAM174B (11720279_a_at) / RFU TMPRSS4 (11748680_a_at) / Fold change /veh TMPRSS4 (11748680_a_at) / RFU FAM212B (11763350_a_at) / Fold change /veh FAM212B (11763350_a_at) / RFU PLEKHG5 (11743358_a_at) / Fold change /veh PLEKHG5 (11743358_a_at) / RFU ZSCAN30 (11745921_a_at) / Fold change /veh ZSCAN30 (11745921_a_at) / RFU CMKLR1 (11741424_a_at) / Fold change /veh CMKLR1 (11741424_a_at) / RFU LOC101060620 /// MAPK8IP1 (11723275_at) / Fold change /veh LOC101060620 /// MAPK8IP1 (11723275_at) / RFU SPTSSB (11747773_x_at) / Fold change /veh SPTSSB (11747773_x_at) / RFU PRSS12 (11739890_at) / Fold change /veh PRSS12 (11739890_at) / RFU BIN1 (11741810_x_at) / Fold change /veh BIN1 (11741810_x_at) / RFU WNT11 (11732464_a_at) / Fold change /veh WNT11 (11732464_a_at) / RFU C10orf10 (11716521_a_at) / Fold change /veh C10orf10 (11716521_a_at) / RFU C5orf56 (11738089_at) / Fold change /veh C5orf56 (11738089_at) / RFU CYB561 (11721691_x_at) / Fold change /veh CYB561 (11721691_x_at) / RFU ANKRD19P (11752326_a_at) / Fold change /veh ANKRD19P (11752326_a_at) / RFU OR2T12 /// OR2T33 /// OR2T8 (11738714_s_at) / Fold change /veh OR2T12 /// OR2T33 /// OR2T8 (11738714_s_at) / RFU VCAN (11748164_a_at) / Fold change /veh VCAN (11748164_a_at) / RFU JSRP1 (11732532_at) / Fold change /veh JSRP1 (11732532_at) / RFU KRTAP10-11 (11738290_x_at) / Fold change /veh KRTAP10-11 (11738290_x_at) / RFU MYO3A (11730013_a_at) / Fold change /veh MYO3A (11730013_a_at) / RFU EBF3 (11725865_a_at) / Fold change /veh EBF3 (11725865_a_at) / RFU CAMK2N1 (11719241_x_at) / Fold change /veh CAMK2N1 (11719241_x_at) / RFU C5orf56 (11738088_a_at) / Fold change /veh C5orf56 (11738088_a_at) / RFU OLFML3 (11715873_a_at) / Fold change /veh OLFML3 (11715873_a_at) / RFU LOC100653217 /// NTM (11731650_a_at) / Fold change /veh LOC100653217 /// NTM (11731650_a_at) / RFU MAPK11 (11762145_a_at) / Fold change /veh MAPK11 (11762145_a_at) / RFU FIZ1 (11724087_x_at) / Fold change /veh FIZ1 (11724087_x_at) / RFU OASL (11726364_x_at) / Fold change /veh OASL (11726364_x_at) / RFU SOX15 (11748057_x_at) / Fold change /veh SOX15 (11748057_x_at) / RFU CD79A (11719716_a_at) / Fold change /veh CD79A (11719716_a_at) / RFU HIST1H1D (11736915_at) / Fold change /veh HIST1H1D (11736915_at) / RFU CASKIN2 (11723855_a_at) / Fold change /veh CASKIN2 (11723855_a_at) / RFU LOC730098 (11760151_x_at) / Fold change /veh LOC730098 (11760151_x_at) / RFU OR4N2 (11742367_at) / Fold change /veh OR4N2 (11742367_at) / RFU PRRT2 (11749266_a_at) / Fold change /veh PRRT2 (11749266_a_at) / RFU SNX32 (11753110_a_at) / Fold change /veh SNX32 (11753110_a_at) / RFU CDHR5 (11726645_a_at) / Fold change /veh CDHR5 (11726645_a_at) / RFU RCAN1 (11760418_a_at) / Fold change /veh RCAN1 (11760418_a_at) / RFU FAM167A (11723789_a_at) / Fold change /veh FAM167A (11723789_a_at) / RFU FAM26E (11764081_at) / Fold change /veh FAM26E (11764081_at) / RFU ISYNA1 (11749810_s_at) / Fold change /veh ISYNA1 (11749810_s_at) / RFU ACY1 (11761880_at) / Fold change /veh ACY1 (11761880_at) / RFU 11764098_at / Fold change /veh 11764098_at / RFU SAMD14 (11745864_x_at) / Fold change /veh SAMD14 (11745864_x_at) / RFU NPB (11741838_a_at) / Fold change /veh NPB (11741838_a_at) / RFU TMPRSS6 (11731388_a_at) / Fold change /veh TMPRSS6 (11731388_a_at) / RFU KRTAP10-2 (11738614_at) / Fold change /veh KRTAP10-2 (11738614_at) / RFU ARHGAP8 /// PRR5-ARHGAP8 (11727945_x_at) / Fold change /veh ARHGAP8 /// PRR5-ARHGAP8 (11727945_x_at) / RFU KRTAP5-7 /// NADSYN1 (11734609_at) / Fold change /veh KRTAP5-7 /// NADSYN1 (11734609_at) / RFU RASL12 (11751679_a_at) / Fold change /veh RASL12 (11751679_a_at) / RFU CDKN2B (11736163_a_at) / Fold change /veh CDKN2B (11736163_a_at) / RFU PRF1 (11729649_at) / Fold change /veh PRF1 (11729649_at) / RFU, ZNF638 /// ZNF638-IT1 / Fold change vs veh, ZNF638 /// ZNF638-IT1 / RFU, PANK3 / Fold change vs veh, PANK3 / RFU, SH3YL1 / Fold change vs veh, SH3YL1 / RFU, ZEB2 / Fold change vs veh, ZEB2 / RFU, NRIP1 / Fold change vs veh, NRIP1 / RFU, PTTG1IP / Fold change vs veh, PTTG1IP / RFU, CAPN2 / Fold change vs veh, CAPN2 / RFU, MED14 / Fold change vs veh, MED14 / RFU, SNORA58 / Fold change vs veh, SNORA58 / RFU, C1orf63 / Fold change vs veh, C1orf63 / RFU, LRRFIP1 / Fold change vs veh, LRRFIP1 / RFU, NDUFAF7 / Fold change vs veh, NDUFAF7 / RFU, SLC12A2 / Fold change vs veh, SLC12A2 / RFU, IBTK / Fold change vs veh, IBTK / RFU, ESF1 / Fold change vs veh, ESF1 / Fold change vs veh, TMEM50B / RFU, TAOK1 / Fold change vs veh, TAOK1 / RFU, ACBD3 / Fold change vs veh, ACBD3 / RFU, TMA16 / Fold change vs veh, TMA16 / RFU, RWDD3 / Fold change vs veh, RWDD3 / RFU, BCAT1 / Fold change vs veh, BCAT1 / RFU, EDEM3 / Fold change vs veh, EDEM3 / RFU, TMEM33 / Fold change vs veh, TMEM33 / RFU, WDR75 / Fold change vs veh, WDR75 / RFU, AHCTF1 / Fold change vs veh, AHCTF1 / RFU, TFRC / Fold change vs veh, TFRC / RFU, ZDHHC17 / Fold change vs veh, ZDHHC17 / RFU, NOM1 / Fold change vs veh, NOM1 / RFU, ARL8B / Fold change vs veh, ARL8B / RFU, ZBTB11 / Fold change vs veh, ZBTB11 / RFU, TAMM41 / Fold change vs veh, TAMM41 / RFU, KIAA1704 /// LOC100996395 / Fold change vs veh, KIAA1704 /// LOC100996395 / RFU, ING1 / Fold change vs veh, ING1 / RFU, TRMT61B / Fold change vs veh, TRMT61B / RFU, FUBP3 / Fold change vs veh, FUBP3 / RFU, TP53 / Fold change vs veh, TP53 / RFU, TNKS2 / Fold change vs veh, TNKS2 / RFU, ZFP14 / Fold change vs veh, ZFP14 / RFU, ACTR2 / Fold change vs veh, ACTR2 / RFU, PPP3R1 / Fold change vs veh, PPP3R1 / RFU, PIK3R1 / Fold change vs veh, PIK3R1 / RFU, HNRNPA1 / Fold change vs veh, HNRNPA1 / RFU, RNF170 / Fold change vs veh, RNF170 / RFU, ZNF28 / Fold change vs veh, ZNF28 / RFU, RNGTT / Fold change vs veh, RNGTT / RFU, OGT / Fold change vs veh, OGT / RFU, BRD1 / Fold change vs veh, BRD1 / RFU, MARS / Fold change vs veh, MARS / RFU, ZNF655 / Fold change vs veh, ZNF655 / RFU, FAHD1 / Fold change vs veh, FAHD1 / RFU, BDP1 / Fold change vs veh, BDP1 / RFU, LRRCC1 / Fold change vs veh, LRRCC1 / RFU, ARID1A / Fold change vs veh, ARID1A / RFU, ZNF146 / Fold change vs veh, ZNF146 / RFU, ZNF330 / Fold change vs veh, ZNF330 / RFU, GPN3 / Fold change vs veh, GPN3 / RFU, C9orf123 / Fold change vs veh, C9orf123 / RFU, N4BP2L2 / Fold change vs veh, N4BP2L2 / RFU, ARFIP1 / Fold change vs veh, ARFIP1 / RFU, FAM179B / Fold change vs veh, FAM179B / RFU, BCL10 / Fold change vs veh, BCL10 / RFU, UHRF1BP1L / Fold change vs veh, UHRF1BP1L / RFU, BET1 / Fold change vs veh, BET1 / RFU, CNOT2 / Fold change vs veh, CNOT2 / RFU, ZNF268 / Fold change vs veh, ZNF268 / Fold change vs veh, ZNF507 / RFU, DGCR2 / Fold change vs veh, DGCR2 / RFU, WDSUB1 / Fold change vs veh, WDSUB1 / Fold change vs veh, HSP90B1 /// MIR3652 / RFU, ADSS / Fold change vs veh, ADSS / RFU, GK / Fold change vs veh, GK / RFU, ZNF148 / Fold change vs veh, ZNF148 / RFU, TAF9 / Fold change vs veh, TAF9 / RFU, SLC1A5 / Fold change vs veh, SLC1A5 / RFU, SLMO2 / Fold change vs veh, SLMO2 / RFU, ABCC4 / Fold change vs veh, ABCC4 / RFU, LOC101060439 /// RAP1B / Fold change vs veh, LOC101060439 /// RAP1B / RFU, RFX7 / Fold change vs veh, RFX7 / RFU, GTPBP10 / Fold change vs veh, GTPBP10 / RFU, CNEP1R1 / Fold change vs veh, CNEP1R1 / RFU, BIVM-ERCC5 /// ERCC5 / Fold change vs veh, BIVM-ERCC5 /// ERCC5 / RFU, ILF3 / Fold change vs veh, ILF3 / RFU 11762660_at / Fold change /veh 11762660_at / RFU VCAN (11757783_s_at) / Fold change /veh VCAN (11757783_s_at) / RFU DDX43 (11728927_at) / Fold change /veh DDX43 (11728927_at) / RFU KRT8 (11758188_x_at) / Fold change /veh KRT8 (11758188_x_at) / RFU NKD1 (11759106_at) / Fold change /veh NKD1 (11759106_at) / RFU SRD5A1 (11742802_a_at) / Fold change /veh SRD5A1 (11742802_a_at) / RFU TPSAB1 /// TPSB2 (11721975_s_at) / Fold change /veh TPSAB1 /// TPSB2 (11721975_s_at) / RFU GSTM3 (11746129_a_at) / Fold change /veh GSTM3 (11746129_a_at) / RFU IL23R (11737362_x_at) / Fold change /veh IL23R (11737362_x_at) / RFU TMEM51 (11727254_a_at) / Fold change /veh TMEM51 (11727254_a_at) / RFU PIWIL2 (11732686_x_at) / Fold change /veh PIWIL2 (11732686_x_at) / RFU ORM1 (11744905_x_at) / Fold change /veh ORM1 (11744905_x_at) / RFU CCDC152 (11743942_at) / Fold change /veh CCDC152 (11743942_at) / RFU ECM1 (11717891_a_at) / Fold change /veh ECM1 (11717891_a_at) / RFU IL23R (11748794_a_at) / Fold change /veh IL23R (11748794_a_at) / RFU TNFAIP8L3 (11732012_x_at) / Fold change /veh TNFAIP8L3 (11732012_x_at) / RFU MBOAT4 (11741988_at) / Fold change /veh MBOAT4 (11741988_at) / RFU 11764193_at / Fold change /veh 11764193_at / RFU TMEM53 (11763286_at) / Fold change /veh TMEM53 (11763286_at) / RFU MAGEB2 (11727129_at) / Fold change /veh MAGEB2 (11727129_at) / RFU TMEM200A (11744735_a_at) / Fold change /veh TMEM200A (11744735_a_at) / RFU CCDC152 (11751479_a_at) / Fold change /veh CCDC152 (11751479_a_at) / RFU FAM211A (11726209_a_at) / Fold change /veh FAM211A (11726209_a_at) / RFU RGS16 (11746705_a_at) / Fold change /veh RGS16 (11746705_a_at) / RFU VCAN (11755009_s_at) / Fold change /veh VCAN (11755009_s_at) / RFU RHOB (11743442_s_at) / Fold change /veh RHOB (11743442_s_at) / RFU RGS16 (11720943_a_at) / Fold change /veh RGS16 (11720943_a_at) / RFU RGS16 (11720944_at) / Fold change /veh RGS16 (11720944_at) / RFU, VPS4B / Fold change vs veh, VPS4B / RFU, CREB1 / Fold change vs veh, CREB1 / RFU, DNAJC13 / Fold change vs veh, DNAJC13 / RFU, GNAQ / Fold change vs veh, GNAQ / RFU, CDK5R1 / Fold change vs veh, CDK5R1 / RFU, ZRANB3 / Fold change vs veh, ZRANB3 / RFU, CUL4A / Fold change vs veh, CUL4A / RFU, CCNY / Fold change vs veh, CCNY / RFU, UFL1 / Fold change vs veh, UFL1 / RFU, COG3 / Fold change vs veh, COG3 / RFU, DIAPH2 / Fold change vs veh, DIAPH2 / RFU, SKA2 / Fold change vs veh, SKA2 / RFU, AFF3 / Fold change vs veh, AFF3 / RFU, LMF1 / Fold change vs veh, LMF1 / RFU, IPO11 / Fold change vs veh, IPO11 / RFU, DFFB / Fold change vs veh, DFFB / RFU, FOXP1 / Fold change vs veh, FOXP1 / RFU, CARD8 / Fold change vs veh, CARD8 / RFU, STRN3 / Fold change vs veh, STRN3 / RFU, ADK / Fold change vs veh, ADK / RFU, RASSF2 / Fold change vs veh, RASSF2 / RFU, WIPF1 / Fold change vs veh, WIPF1 / RFU, LARP1B / Fold change vs veh, LARP1B / RFU, RASA1 / Fold change vs veh, RASA1 / RFU, RB1 / Fold change vs veh, RB1 / RFU, PPFIA1 / Fold change vs veh, PPFIA1 / RFU, MAT2A / Fold change vs veh, MAT2A / RFU, CCT5 / Fold change vs veh, CCT5 / RFU, WDR92 / Fold change vs veh, WDR92 / RFU, CUX1 / Fold change vs veh, CUX1 / RFU, TTC7A / Fold change vs veh, TTC7A / RFU, TMEM135 / Fold change vs veh, TMEM135 / RFU, DEPTOR / Fold change vs veh, DEPTOR / RFU, CPM / Fold change vs veh, CPM / RFU, DNAJB6 / Fold change vs veh, DNAJB6 / RFU, CACNA2D3 / Fold change vs veh, CACNA2D3 / RFU, DTX4 / Fold change vs veh, DTX4 / RFU, TFCP2 / Fold change vs veh, TFCP2 / RFU, GMCL1 /// GMCL1P1 / Fold change vs veh, GMCL1 /// GMCL1P1 / RFU, AEBP2 / Fold change vs veh, AEBP2 / RFU, SNHG1 /// SNORD22 /// SNORD25 /// SNORD26 /// SNORD27 /// SNORD28 /// SNORD29 /// SNORD31 / Fold change vs veh, SNHG1 /// SNORD22 /// SNORD25 /// SNORD26 /// SNORD27 /// SNORD28 /// SNORD29 /// SNORD31 / Fold change (Aza/veh), C12orf56 (ProbeSet 11735607_a_at) / Fold change (ACY-1035/veh), C12orf56 (ProbeSet 11735607_a_at) / Fold change (Aza/veh), FGFR1OP (ProbeSet 11751329_s_at) / Fold change (ACY-1035/veh), FGFR1OP (ProbeSet 11751329_s_at) / Fold change (Aza/veh), VPS36 (ProbeSet 11739960_a_at) / Fold change (ACY-1035/veh), VPS36 (ProbeSet 11739960_a_at) / RFU SYPL1 (11715823_x_at) / Fold change /veh SYPL1 (11715823_x_at) / RFU IGFBP7 (11715501_s_at) / Fold change /veh IGFBP7 (11715501_s_at) / RFU REEP3 (11722064_at) / Fold change /veh REEP3 (11722064_at) / RFU IGLL1 (11728026_x_at) / Fold change /veh IGLL1 (11728026_x_at): dose or concentration left out as unconfirmed. The conditions noted are these: MV-4-11 cells, 48 hours.

Consider `Nc1ccc(-c2cccs2)cc1NC(=O)c1ccc2c(c1)cc(C1CC1)n2CCN1CCOCC1` [ACY-1035], for which the “RFU A4GNT (11735810_at)” value came to 16.59 RFU.
